{"source": "ChEMBL document CHEMBL1201862", "about": "“PubChem BioAssay data set” (2004)", "key": {"[1]": {"molecular_target": "Beta-2 adrenergic receptor (Homo sapiens, UniProt P07550)", "sequence (P07550 whole entry)": "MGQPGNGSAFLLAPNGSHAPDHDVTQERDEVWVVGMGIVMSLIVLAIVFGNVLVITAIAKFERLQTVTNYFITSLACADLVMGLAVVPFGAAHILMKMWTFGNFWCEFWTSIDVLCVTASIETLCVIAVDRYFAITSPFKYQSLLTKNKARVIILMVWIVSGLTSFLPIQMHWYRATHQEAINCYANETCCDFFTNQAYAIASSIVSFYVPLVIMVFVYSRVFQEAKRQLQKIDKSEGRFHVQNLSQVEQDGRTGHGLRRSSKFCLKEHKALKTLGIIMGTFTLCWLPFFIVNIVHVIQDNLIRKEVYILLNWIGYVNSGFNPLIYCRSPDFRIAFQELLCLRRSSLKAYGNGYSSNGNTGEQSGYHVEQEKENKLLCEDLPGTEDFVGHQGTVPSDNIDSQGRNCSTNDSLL", "assay": "beta2AR agonists driving receptor internalization, dose response, cell-based, FAP fluorogen, flow cytometry, cherry pick 1 (AID 588763)", "format": "functional"}, "Phospholipase D1": {"molecular_target": "Phospholipase D1 (Homo sapiens, UniProt Q13393)", "sequence (Q13393 whole entry)": "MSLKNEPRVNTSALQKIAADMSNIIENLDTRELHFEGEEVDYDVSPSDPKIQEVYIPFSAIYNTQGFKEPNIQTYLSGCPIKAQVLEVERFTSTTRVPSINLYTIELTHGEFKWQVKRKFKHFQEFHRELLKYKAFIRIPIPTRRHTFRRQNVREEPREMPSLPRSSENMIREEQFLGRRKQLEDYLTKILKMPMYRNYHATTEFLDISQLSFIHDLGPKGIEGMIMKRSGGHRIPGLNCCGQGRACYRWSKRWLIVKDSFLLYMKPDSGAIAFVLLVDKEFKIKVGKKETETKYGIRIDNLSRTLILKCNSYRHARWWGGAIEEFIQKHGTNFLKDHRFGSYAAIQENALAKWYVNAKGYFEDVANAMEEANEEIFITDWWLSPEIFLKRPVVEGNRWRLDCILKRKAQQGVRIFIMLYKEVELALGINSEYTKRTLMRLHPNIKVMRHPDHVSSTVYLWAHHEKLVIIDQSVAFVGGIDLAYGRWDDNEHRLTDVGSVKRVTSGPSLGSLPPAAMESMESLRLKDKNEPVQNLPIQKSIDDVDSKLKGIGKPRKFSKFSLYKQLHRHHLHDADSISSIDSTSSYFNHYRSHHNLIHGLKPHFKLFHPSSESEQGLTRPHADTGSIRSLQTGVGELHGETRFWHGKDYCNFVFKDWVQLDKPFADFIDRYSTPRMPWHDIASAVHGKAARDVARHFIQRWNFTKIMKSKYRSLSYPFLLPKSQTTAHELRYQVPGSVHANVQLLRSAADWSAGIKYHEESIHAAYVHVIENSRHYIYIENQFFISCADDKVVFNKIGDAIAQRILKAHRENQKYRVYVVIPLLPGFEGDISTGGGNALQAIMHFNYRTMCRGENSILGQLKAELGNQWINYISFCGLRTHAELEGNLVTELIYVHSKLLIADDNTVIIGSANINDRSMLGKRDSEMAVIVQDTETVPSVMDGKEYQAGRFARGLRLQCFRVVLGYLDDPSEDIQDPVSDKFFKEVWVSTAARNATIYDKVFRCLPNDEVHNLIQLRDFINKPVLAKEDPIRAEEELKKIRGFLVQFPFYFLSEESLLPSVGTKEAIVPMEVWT", "assay": "PLD1 inhibitor potency in cells, dose response (AID 602151);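 further: cellular PLD1 assay in Calu-1 cells stimulated with PMA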", "format": "functional"}, "Phospholipase D2": {"molecular_target": "Phospholipase D2 (Homo sapiens, UniProt O14939)", "assay": "PLD2 inhibitor potency in cells, dose response (AID 602147);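 further: cellular assay in HEK293 cells overexpressing GFP-tagged PLD2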", "format": "functional"}, "[2]": {"molecular_target": "DNA (cytosine-5)-methyltransferase 1 (Homo sapiens, UniProt P26358)", "sequence (P26358 whole entry)": "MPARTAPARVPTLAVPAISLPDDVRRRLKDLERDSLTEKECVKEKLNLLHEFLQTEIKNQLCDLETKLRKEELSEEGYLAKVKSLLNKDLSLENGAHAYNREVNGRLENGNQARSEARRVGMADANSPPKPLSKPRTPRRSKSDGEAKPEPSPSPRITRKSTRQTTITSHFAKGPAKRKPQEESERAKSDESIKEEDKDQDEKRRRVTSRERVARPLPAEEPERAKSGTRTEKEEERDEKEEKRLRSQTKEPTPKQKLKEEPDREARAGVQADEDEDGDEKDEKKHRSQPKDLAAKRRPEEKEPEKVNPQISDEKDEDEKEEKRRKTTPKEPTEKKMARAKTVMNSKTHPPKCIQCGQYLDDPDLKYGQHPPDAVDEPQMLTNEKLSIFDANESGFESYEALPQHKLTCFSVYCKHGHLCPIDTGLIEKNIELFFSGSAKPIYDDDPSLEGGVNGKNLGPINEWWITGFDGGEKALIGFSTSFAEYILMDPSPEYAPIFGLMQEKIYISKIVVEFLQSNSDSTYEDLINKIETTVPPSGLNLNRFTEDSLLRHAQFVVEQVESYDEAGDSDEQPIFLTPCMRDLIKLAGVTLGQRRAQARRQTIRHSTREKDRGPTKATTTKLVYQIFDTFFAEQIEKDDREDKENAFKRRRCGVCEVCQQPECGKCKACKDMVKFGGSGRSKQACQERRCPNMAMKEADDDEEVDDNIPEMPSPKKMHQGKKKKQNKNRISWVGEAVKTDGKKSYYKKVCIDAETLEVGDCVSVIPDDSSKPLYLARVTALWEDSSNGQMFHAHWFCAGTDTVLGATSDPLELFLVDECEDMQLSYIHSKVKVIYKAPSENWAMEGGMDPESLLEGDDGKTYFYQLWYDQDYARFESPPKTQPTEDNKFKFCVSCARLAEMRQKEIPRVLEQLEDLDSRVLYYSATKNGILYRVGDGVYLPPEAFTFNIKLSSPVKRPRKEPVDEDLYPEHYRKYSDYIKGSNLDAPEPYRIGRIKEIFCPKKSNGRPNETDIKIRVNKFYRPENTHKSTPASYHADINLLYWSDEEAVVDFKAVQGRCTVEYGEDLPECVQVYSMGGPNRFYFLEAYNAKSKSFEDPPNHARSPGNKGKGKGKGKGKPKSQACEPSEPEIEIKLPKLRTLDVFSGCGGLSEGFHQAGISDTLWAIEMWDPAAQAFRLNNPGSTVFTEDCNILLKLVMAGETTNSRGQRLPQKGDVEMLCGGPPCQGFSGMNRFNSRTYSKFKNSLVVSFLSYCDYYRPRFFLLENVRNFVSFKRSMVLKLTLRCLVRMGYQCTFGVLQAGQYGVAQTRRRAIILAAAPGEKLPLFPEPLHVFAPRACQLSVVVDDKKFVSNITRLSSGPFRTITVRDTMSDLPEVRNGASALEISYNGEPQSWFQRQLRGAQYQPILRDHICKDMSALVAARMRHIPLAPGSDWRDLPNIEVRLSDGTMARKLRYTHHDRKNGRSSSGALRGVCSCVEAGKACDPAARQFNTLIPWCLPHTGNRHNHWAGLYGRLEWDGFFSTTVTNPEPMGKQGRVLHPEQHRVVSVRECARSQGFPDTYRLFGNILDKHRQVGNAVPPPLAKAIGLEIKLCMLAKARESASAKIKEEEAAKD", "assay": "DNMT1 methyltransferase inhibitors, confirmation, biochemical, fluorescent molecular beacon (AID 602386)", "format": "functional"}, "[3]": {"molecular_target": "T1, Small ubiquitin-related modifier 1 (Homo sapiens, UniProt P63165)", "T1 sequence (P63165 whole entry)": "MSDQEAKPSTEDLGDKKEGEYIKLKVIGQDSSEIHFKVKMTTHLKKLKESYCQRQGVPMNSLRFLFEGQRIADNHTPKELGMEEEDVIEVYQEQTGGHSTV", "assay": "inhibitors of SUMO1 partner interactions, dose response, biochemical, FRET (AID 624383)", "format": "functional", "conditions": "read-out: IC50_Mean"}, "[4]": {"molecular_target": "T2, Carboxy-terminal domain RNA polymerase II polypeptide A small phosphatase 1 (Homo sapiens, UniProt Q9GZU7)", "T2 sequence (Q9GZU7 whole entry)": "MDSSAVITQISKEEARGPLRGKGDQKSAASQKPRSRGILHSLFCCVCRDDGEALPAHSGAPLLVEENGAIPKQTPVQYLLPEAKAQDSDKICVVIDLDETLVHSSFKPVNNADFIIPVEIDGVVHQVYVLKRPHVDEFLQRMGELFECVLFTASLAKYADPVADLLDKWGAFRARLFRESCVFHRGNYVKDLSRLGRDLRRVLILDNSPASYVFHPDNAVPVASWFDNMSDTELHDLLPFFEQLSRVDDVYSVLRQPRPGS", "assay": "inhibitors of CTDSP1, concentration-response testing, biochemical assay, absorbance-based, actives from ultra-high-throughput screening (AID 540297)", "format": "functional"}, "[5]": {"molecular_target": "Beta-adrenergic receptor kinase 1 (Homo sapiens, UniProt P25098)", "assay": "aptamer displacement from bead-bound GRK2 – biochemical, cherry pick 1, bead flow cytometry, dose response (AID 504500)"}, "[6]": {"molecular_target": "T1, Small ubiquitin-related modifier 1", "assay": "inhibitors of SUMO1 peptide binding, dose response, biochemical, fluorescence polarization, uHTS hits (AID 624382)", "format": "functional", "conditions": "read-out: IC50_Mean"}, "CAAX prenyl protease 2 [7]": {"molecular_target": "T3, CAAX prenyl protease 2 (Homo sapiens, UniProt Q9Y256)", "T3 sequence (Q9Y256 whole entry)": "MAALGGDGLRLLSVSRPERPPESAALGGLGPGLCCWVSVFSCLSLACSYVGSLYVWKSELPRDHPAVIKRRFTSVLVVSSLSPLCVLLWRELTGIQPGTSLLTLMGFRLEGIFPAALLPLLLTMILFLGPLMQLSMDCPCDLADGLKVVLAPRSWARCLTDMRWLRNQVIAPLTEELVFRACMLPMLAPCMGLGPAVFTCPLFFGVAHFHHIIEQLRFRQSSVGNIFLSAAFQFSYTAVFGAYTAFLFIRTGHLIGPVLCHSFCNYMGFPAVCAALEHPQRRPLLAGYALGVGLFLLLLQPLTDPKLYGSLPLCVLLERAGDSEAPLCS", "assay": "human Rce1 protease inhibitors, dose response, biochemical, yeast membranes, quenched-peptide fluorescence, cherry-pick (AID 588849)"}, "CAAX prenyl protease 2 [8]": {"molecular_target": "T4, CAAX prenyl protease 2 (Saccharomyces cerevisiae S288c, UniProt Q03530)", "T4 sequence (Q03530 whole entry)": "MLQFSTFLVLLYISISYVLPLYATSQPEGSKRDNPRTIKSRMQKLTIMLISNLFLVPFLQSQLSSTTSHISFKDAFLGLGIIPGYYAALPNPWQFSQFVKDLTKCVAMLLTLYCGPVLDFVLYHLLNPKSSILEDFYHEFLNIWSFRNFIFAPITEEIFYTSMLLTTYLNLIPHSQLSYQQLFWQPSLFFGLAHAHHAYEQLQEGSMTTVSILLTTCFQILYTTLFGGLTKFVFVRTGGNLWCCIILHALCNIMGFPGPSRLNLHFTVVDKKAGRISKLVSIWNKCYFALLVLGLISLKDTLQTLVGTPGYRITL", "format": "biochemical"}, "CAAX prenyl protease 2 [9]": {"molecular_target": "T4, CAAX prenyl protease 2", "assay": "yeast Rce1 CaaX protease inhibitors, dose response, biochemical, plate reader, dry powder retest (AID 588851)"}, "CAAX prenyl protease 2 [10]": {"molecular_target": "T3, CAAX prenyl protease 2", "assay": "human Rce1 protease inhibitors, dose response, biochemical, plate reader, dry powder samples (AID 588848)"}, "[11]": {"molecular_target": "Latent membrane protein 1 (Human herpesvirus 4 (strain B95-8), UniProt P03230)", "assay": "TES1-eGFP NF-kB reporter inhibition versus Tet-On dsRED, dose response, selectivity assay for LMP1 NF-kB inhibitor project, imaging, HEK293T, dual-color eGFP/dsRED, cherry-picks (AID 588398)", "format": "functional, cell-based"}, "[12]": {"molecular_target": "T5, Short transient receptor potential channel 4 (Mus musculus, UniProt Q9QUQ5)", "T5 sequence (Q9QUQ5 whole entry)": "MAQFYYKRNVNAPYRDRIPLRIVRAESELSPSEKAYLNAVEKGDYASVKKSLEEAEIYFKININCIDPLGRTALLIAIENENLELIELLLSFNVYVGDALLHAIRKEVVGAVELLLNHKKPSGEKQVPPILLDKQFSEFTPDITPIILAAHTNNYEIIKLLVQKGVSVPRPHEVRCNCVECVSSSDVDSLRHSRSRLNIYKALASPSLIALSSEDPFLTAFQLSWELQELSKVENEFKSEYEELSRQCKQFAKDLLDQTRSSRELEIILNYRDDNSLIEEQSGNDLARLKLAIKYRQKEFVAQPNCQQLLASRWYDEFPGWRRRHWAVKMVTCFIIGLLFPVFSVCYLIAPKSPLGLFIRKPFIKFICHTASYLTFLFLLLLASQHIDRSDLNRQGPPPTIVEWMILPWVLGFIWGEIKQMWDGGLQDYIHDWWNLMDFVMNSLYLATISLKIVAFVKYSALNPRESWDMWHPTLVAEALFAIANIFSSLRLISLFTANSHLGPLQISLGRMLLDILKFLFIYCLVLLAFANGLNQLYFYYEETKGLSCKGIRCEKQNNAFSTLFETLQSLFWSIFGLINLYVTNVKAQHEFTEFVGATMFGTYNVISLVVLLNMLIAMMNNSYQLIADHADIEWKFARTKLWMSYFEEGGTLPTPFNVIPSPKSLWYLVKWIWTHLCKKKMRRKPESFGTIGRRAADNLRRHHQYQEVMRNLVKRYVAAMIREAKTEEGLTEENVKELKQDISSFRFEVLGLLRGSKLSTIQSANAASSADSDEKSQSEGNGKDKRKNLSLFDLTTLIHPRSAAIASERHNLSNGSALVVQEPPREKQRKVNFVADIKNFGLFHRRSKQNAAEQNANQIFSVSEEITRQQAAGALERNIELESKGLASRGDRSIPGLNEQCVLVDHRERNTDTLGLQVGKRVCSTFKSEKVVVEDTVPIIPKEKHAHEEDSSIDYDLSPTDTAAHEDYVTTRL", "assay": "TRPC4 inhibitor concentration-response, dose response, cell-based, HEK293 TRPC4/mu-opioid, DAMGO stimulus, Fluo-4 (AID 492994)", "format": "functional"}, "[13]": {"molecular_target": "T5, Short transient receptor potential channel 4", "assay": "TRPC4 inhibition under acetylcholine activation, SAR follow-up, cell-based, acetylcholine stimulus, HEK293 TRPC4, Fluo-4 (AID 492996)", "format": "functional"}, "[14]": {"molecular_target": "T5, Short transient receptor potential channel 4", "assay": "SAR Analysis for the identification of selective inhibits of the transient receptor potential cation channel C4 (TRPC4): Automated Electrophysiology. [Related pubchem assays (depositor defined):AID2256]", "format": "functional"}, "[15]": {"molecular_target": "Short transient receptor potential channel 6 (Mus musculus, UniProt Q61143)", "sequence (Q61143 whole entry)": "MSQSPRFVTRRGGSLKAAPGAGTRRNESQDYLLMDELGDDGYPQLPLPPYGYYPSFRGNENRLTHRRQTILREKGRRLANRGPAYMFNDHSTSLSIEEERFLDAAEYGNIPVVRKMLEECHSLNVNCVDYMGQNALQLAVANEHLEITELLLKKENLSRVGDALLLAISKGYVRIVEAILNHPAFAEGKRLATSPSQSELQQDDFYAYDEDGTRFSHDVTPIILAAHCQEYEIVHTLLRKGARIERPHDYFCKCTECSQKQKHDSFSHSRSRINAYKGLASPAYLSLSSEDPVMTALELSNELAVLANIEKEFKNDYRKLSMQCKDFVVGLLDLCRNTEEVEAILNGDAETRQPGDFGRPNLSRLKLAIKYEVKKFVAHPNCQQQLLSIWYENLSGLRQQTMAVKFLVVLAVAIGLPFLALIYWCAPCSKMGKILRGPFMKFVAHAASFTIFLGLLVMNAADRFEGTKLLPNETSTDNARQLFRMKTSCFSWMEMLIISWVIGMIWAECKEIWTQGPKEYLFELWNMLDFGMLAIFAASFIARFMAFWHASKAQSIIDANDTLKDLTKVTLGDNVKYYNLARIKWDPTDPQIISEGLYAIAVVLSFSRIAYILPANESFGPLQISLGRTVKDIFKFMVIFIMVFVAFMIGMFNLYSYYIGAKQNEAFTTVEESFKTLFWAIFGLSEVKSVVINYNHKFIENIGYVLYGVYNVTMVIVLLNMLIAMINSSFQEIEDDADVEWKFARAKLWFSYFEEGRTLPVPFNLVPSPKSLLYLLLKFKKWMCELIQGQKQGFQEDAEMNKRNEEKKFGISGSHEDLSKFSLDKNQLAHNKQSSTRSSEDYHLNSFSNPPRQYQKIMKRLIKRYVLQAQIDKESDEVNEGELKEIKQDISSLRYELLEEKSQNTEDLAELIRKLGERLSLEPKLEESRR", "assay": "TRPC6 inhibition potency of TRPC4 inhibitor analogs, dose response, selectivity assay for selective TRPC4 inhibitor project, HEK293 cells, membrane potential dye, IC50 (AID 492987)", "format": "functional, cell-based"}, "[16]": {"assay": "Luminescence Cell-Based Dose Response Follow up to Identify Inhibitors of Platelet Dense Granule Release. [Related pubchem assays (depositor defined):AID1663, AID1678, AID2398]", "format": "functional"}, "[17]": {"assay": "blockers of SFLLRN-triggered platelet ATP secretion – cell-based, human platelets, luminescence, dry powder, dose response (AID 493100)", "format": "functional"}, "[18]": {"molecular_target": "Luciferin 4-monooxygenase (Photinus pyralis, UniProt P08659)", "sequence (P08659 whole entry)": "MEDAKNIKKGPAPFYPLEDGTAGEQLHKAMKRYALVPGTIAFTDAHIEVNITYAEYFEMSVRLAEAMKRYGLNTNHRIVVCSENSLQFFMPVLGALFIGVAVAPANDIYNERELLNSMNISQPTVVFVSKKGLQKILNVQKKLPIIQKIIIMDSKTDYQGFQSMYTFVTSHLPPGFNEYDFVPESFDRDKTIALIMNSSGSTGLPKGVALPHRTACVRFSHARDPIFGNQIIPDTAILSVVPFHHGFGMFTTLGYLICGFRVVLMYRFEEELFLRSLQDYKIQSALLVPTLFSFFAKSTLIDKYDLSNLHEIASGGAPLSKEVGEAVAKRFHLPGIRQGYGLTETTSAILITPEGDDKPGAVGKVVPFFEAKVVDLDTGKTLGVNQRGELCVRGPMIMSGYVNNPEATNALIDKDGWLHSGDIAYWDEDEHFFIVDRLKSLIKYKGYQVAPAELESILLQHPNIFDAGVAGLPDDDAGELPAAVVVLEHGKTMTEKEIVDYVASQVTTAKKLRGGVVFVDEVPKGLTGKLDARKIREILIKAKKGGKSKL", "assay": "firefly luciferase enzyme inhibitors, dose response, biochemical, luminescence (AID 1891)"}, "[19]": {"assay": "Fluorescence Cell-Based Dose Response to Identify Inhibitors of Thrombin Receptor-Activating Peptide SFLLRN-Mediated P-Selectin Induction on Platelets. [Related pubchem assays: 1663 (Primary HTS), 1889 (retest at dose ), 1891 (counterscreen), 1678 (Project Summary)]", "format": "functional"}, "[20]": {"assay": "inhibitors of SFLLRN-triggered platelet P-selectin exposure, dose response, cell-based, fluorescence, flow cytometry, human platelets (AID 2511)", "format": "functional"}, "[21]": {"assay": "Luminescence Cell-Based Dose Confirmation HTS to Identify Inhibitors of Platelet Dense Granule Release. [Related pubchem assays: 1663 (Primary HTS), 1678 (Summary of Project)]", "format": "functional"}}, "note": "Calls of active or inactive are those of the source. Unless noted, the calls are words filed in the database; no cut-off is given here."}
{"compound": "CCOC(=O)c1ccc(N2C(=O)c3[nH]nc(-c4ccco4)c3C2c2cccc([N+](=O)[O-])c2)cc1", "note": "(stereo not drawn)", "values": [{"measurement": "EC50", "setting": "[1]", "result": "0.571 µM (active)"}]}
{"compound": "O=C(c1cnc2ccccc2c1)N1CCCC1CN1CCC(n2c(=O)[nH]c3ccccc32)CC1", "note": "(stereo not drawn)", "values": [{"measurement": "IC50", "setting": "Phospholipase D1", "result": "2.8 µM (active)"}, {"measurement": "IC50", "setting": "Phospholipase D2", "result": "3.75 µM (active)"}]}
{"compound": "CCOC(=O)C(C)N1C(=O)S/C(=C\\c2ccc(-c3ccccc3C(=O)O)o2)C1=O", "note": "(stereo not drawn)", "values": [{"measurement": "IC50", "setting": "[2]", "result": "6.76 µM (active)"}, {"measurement": "IC50", "setting": "[3]", "result": "10.3 µM (active)"}, {"measurement": "IC50", "setting": "[4]", "result": "1.88 µM (active)"}, {"measurement": "EC50", "setting": "[5]", "result": "3.05 µM (active)"}, {"measurement": "IC50", "setting": "[6]", "result": "> 66.6 µM (inactive)"}]}
{"compound": "CN(C(=O)COC(=O)c1cc([N+](=O)[O-])ccc1Sc1ccccc1)C1CCS(=O)(=O)C1", "note": "(stereo not drawn)", "values": [{"measurement": "AC50", "setting": "CAAX prenyl protease 2 [7]", "result": "17.3 µM (active)"}, {"measurement": "AC50", "setting": "CAAX prenyl protease 2 [8]", "result": "0.55 µM (active)"}, {"measurement": "AC50", "setting": "CAAX prenyl protease 2 [9]", "result": "4.85 µM (active)"}, {"measurement": "AC50", "setting": "CAAX prenyl protease 2 [10]", "result": "60.6 µM (active)"}]}
{"compound": "CC(=NNC(=S)N1CCCCC1)c1ccccn1", "values": [{"measurement": "AC50", "setting": "[11]", "result": "4.29 µM (active)"}]}
{"compound": "Cc1cc(N2CCCC2)nc2ccccc12", "values": [{"measurement": "IC50", "setting": "[12]", "result": "1.84 µM (active)"}, {"measurement": "IC50", "setting": "[13]", "result": "39.1 µM (active)"}, {"measurement": "IC50", "setting": "[14]", "result": "3.59 µM (active)"}, {"measurement": "IC50", "setting": "[15]", "result": "11.9 µM (active)"}]}
{"compound": "Cc1ccc(-n2c(N)c(C#N)c(-c3ccccc3)c(C#N)c2=O)cc1", "values": [{"measurement": "EC50", "setting": "[16]", "result": "0.36 µM (active)"}, {"measurement": "AC50", "setting": "[17]", "result": "7.52 µM (active)"}, {"measurement": "EC50", "setting": "[18]", "result": "> 112 µM (not active)"}, {"measurement": "EC50", "setting": "[19]", "result": "< 0.3 µM (active)"}, {"measurement": "EC50", "setting": "[20]", "result": "< 3 µM (active)"}, {"measurement": "EC50", "setting": "[21]", "result": "3.22 µM (active)"}]}
